Where only a bound is given, the exact number is not on record here.

Experimental findings from ChEMBL document CHEMBL5380858 (J Med Chem, 2023) are described below.

A short description of data set [1]: Selectivity index, ratio of CC50 for cytotoxicity against human calu-3 cells to EC50 for antiviral activity against SARS CoV-2 USA-WA1/2020 infected in human Calu-3 cells. In kind it is toxicity, cell-based. The following applies: read-out: Ratio CC50/EC50.
The nature of data set [2]: Selectivity index, ratio of CC50 for cytotoxicity against human Huh7.5 cells to EC50 for antiviral activity against SARS CoV-2 USA-WA1/2020 infected in human Huh7.5 cells. The class given is toxicity, cell-based. The settings on record: read-out: Ratio CC50/EC50.
The nature of data set [3]: Selectivity index, ratio of CC50 for african green monkey Vero/TMPRSS2 cells to EC50 for antiviral activity against SARS CoV-2 USA-WA1/2020 infected in Vero/TMPRSS2 cells. In kind it is toxicity, cell-based. The settings on record: read-out: Ratio CC50/EC50.
Data set [4] in a line: Selectivity index, ratio of CC50 for cytotoxicity against human iPSC-lung cells to EC50 for antiviral activity against SARS CoV-2 USA-WA1/2020 infected in human iPSC-lung cells. The following applies: read-out: Ratio CC50/EC50. The class given is toxicity, cell-based.
In data set [5] the test system is SARS-CoV-2. The data set is described as follows: Antiviral activity against SARS CoV-2 USA-WA1/2020 infected in human Calu-3 cells pretreated for 30 to 60 mins followed by viral infection and measured after 40 to 44 hrs by sytox green staining based analysis. In kind it is functional, organism-based, Severe acute respiratory syndrome coronavirus 2.
Data set [6] concerns SARS-CoV-2. As to the kind of experiment: Antiviral activity against SARS CoV-2 USA-WA1/2020 infected in human Calu-3 cells assessed as reduction in viral RNA pretreated for 30 mins followed by viral infection and measured after 48 hrs by qRT-PCR analysis. The settings on record: Severe acute respiratory syndrome coronavirus 2, USA-WA1/2020, Calu-3. In kind it is functional, organism-based.

Data set [7] is described as follows: Cytotoxicity against human Calu-3 cells assessed as reduction in cell viability incubated for 48.5 hrs by CellTiter-Glo assay. In kind it is toxicity, cell-based. For orientation: In ATP-based viability assays light output follows the ATP content of the culture.
Data set [8] in a line: Cytotoxicity against human Calu-3 cells assessed as reduction in cell viability incubated for 40 to 44 hrs by celltiter-glo assay. The class given is toxicity, cell-based. The settings on record: time 40-44 hrs.
Data set [9] relates to SARS-CoV-2. The data set is described as follows: Antiviral activity against SARS CoV-2 USA-WA1/2020 infected in human Huh7.5 cells pretreated for 30 to 60 mins followed by viral infection and measured after 48 hrs post infection by sytox green staining based immunofluorescence analysis. In kind it is functional, organism-based. The settings on record: Severe acute respiratory syndrome coronavirus 2, USA-WA1/2020, Huh7.5; for EC90: time 2910-2940 min.

A short description of data set [10]: Cytotoxicity against human Huh7.5 cells assessed as reduction in cell viability incubated for 48 hrs by celltiter glo assay. In kind it is toxicity, cell-based, Huh-7.5.
The subject of data set [11] is SARS-CoV-2. As to the kind of experiment: Antiviral activity against SARS CoV-2 USA-WA1/2020 infected in Vero/TMPRSS2 cells pretreated for 30 to 60 mins followed by viral infection and measured after 38 hrs post infection by sytox green staining based immunofluorescence analysis. In kind it is functional, organism-based. The settings on record: Severe acute respiratory syndrome coronavirus 2, USA-WA1/2020, Vero/TMPRSS2; for EC90: time 2310-2340 min.

The nature of data set [12]: Cytotoxicity against african green monkey Vero/TMPRSS2 cells assessed as reduction in cell viability incubated for 38 hrs by celltiter glo assay. In kind it is toxicity, cell-based. The settings on record: chlorocebus aethiops.
Data set [13] has as its system SARS-CoV-2. As to the kind of experiment: Antiviral activity against SARS CoV-2 USA-WA1/2020 infected in human iPSC-lung cells pretreated for 30 to 60 mins followed by viral infection and measured after 24 hrs post infection by sytox green staining based analysis. The following applies: Severe acute respiratory syndrome coronavirus 2, USA-WA1/2020, iPSC-Lung cell; for EC90: time 1470-1500 min. In kind it is functional, organism-based.

A short description of data set [14]: Cytotoxicity against human iPSC-lung cells assessed as reduction in number of nuclei incubated for 24 hrs by celltiter glo assay. In kind it is toxicity, cell-based, iPSC-Lung cell.
For data set [15], the system named is SARS-CoV-2. As to the kind of experiment: Potency index, ratio of remdesivir EC50 to test compound EC50 for antiviral activity against SARS CoV-2 USA-WA1/2020 infected in human Calu-3 cells pretreated for 30 to 60 mins followed by viral infection and measured after 40 to 44 hrs by sytox green staining based analysis. The class given is functional, Severe acute respiratory syndrome coronavirus 2. The settings on record: time 2430-2700 min.

The mark [16] stands for this setting: Severe acute respiratory syndrome coronavirus 2, USA-WA1/2020, Calu-3.
Where [17] appears, read: Severe acute respiratory syndrome coronavirus 2, USA-WA1/2020, Calu-3, time 2430-2700 min.

As for `CCCCCCCCCCCCCCCCCCOC[C@H](COP(=O)(O)OC[C@H]1O[C@@](C#N)(c2ccc3c(N)ncnn23)[C@H](O)[C@@H]1O)OCc1ccc(OC)c(F)c1`, the selectivity ratio in data set [1] was 656; in [2] it was 1170; in data set [3] it was > 561; in data set [4], > 119.
In the case of `CCCCCCCCCCCCCCCCCCOC[C@H](COP(=O)(O)OC[C@H]1O[C@@](C#N)(c2ccc3c(N)ncnn23)[C@H](O)[C@@H]1O)OCc1cccc(C(F)(F)F)c1`, in data set [1], the selectivity ratio was 418.
In the case of `CCCCCCCCCCCCCCCCCCOC[C@H](COP(=O)(O)OC[C@H]1O[C@@](C#N)(c2ccc3c(N)ncnn23)[C@H](O)[C@@H]1O)OCCC1CCCCC1`, the selectivity ratio in [1] is 685; in data set [2] it was 758.
In the case of `CCCCCCCCCCCCCCCCCCOC[C@H](COP(=O)(O)OC[C@H]1O[C@@](C#N)(c2ccc3c(N)ncnn23)[C@H](O)[C@@H]1O)OCCCCCCCC`, in the data set with SARS-CoV-2 [5] (calu-3), the EC50 (in general, the concentration that produces a half-maximal response) is 0.16 µM. In addition, the EC90 (commonly the concentration at which the effect reaches the 90% level) with SARS-CoV-2 [5] (time 2430-2700 min) was 0.625 µM. Also, the selectivity ratio in [1] was > 255; in data set [2] it was > 177; in [3], > 129.
In the case of `CCCCCCCCCCCCCCCCCCOC[C@H](COP(=O)(O)OC[C@H]1O[C@@](C#N)(c2ccc3c(N)ncnn23)[C@H](O)[C@@H]1O)OCc1ccc(C(F)(F)F)cc1`, in data set [1], the selectivity ratio worked out at 509.
For the molecule `CCCCCCCCCCCCCCCCCCOC[C@H](COP(=O)(O)OC[C@H]1O[C@@](C#N)(c2ccc3c(N)ncnn23)[C@H](O)[C@@H]1O)OCc1cccc(C#N)c1`, the selectivity ratio worked out at 1810 in [1] and 2070 in [2].
On to `CCCCCCCCCCCCCCCCCCOC[C@H](COP(=O)(O)OC[C@H]1O[C@@](C#N)(c2ccc3c(N)ncnn23)[C@H](O)[C@@H]1O)OCc1cccc(F)c1`, for which the figures for the selectivity ratio in data set [1], in data set [2] and in data set [3] were 422, 392 and > 369, respectively.
Consider `N#C[C@@]1(c2ccc3c(N)ncnn23)O[C@H](CO)[C@@H](O)[C@H]1O` [GS-441524], for which the selectivity ratio in [1] was > 666. Besides, in the data set on SARS-CoV-2 [6], the EC50 was found to be 0.15 µM. For the same molecule, in the data set with SARS-CoV-2 [6] (time 48.5 hrs), the EC90 was 0.18 µM. The 50% cytotoxic concentration (CC50) (in general, the concentration that lowers cell viability or growth by half) at 48.5 h in data set [7] is > 100 µM.
As to `CCCCCCCCCCCCCCCCOC[C@H](COP(=O)(O)OC[C@H]1O[C@@](C#N)(c2ccc3c(N)ncnn23)[C@H](O)[C@@H]1O)OCc1ccccc1`, the selectivity ratio in data set [1] was 934; in [2], > 763; in [3], > 248.
On to `CCCCCCCC/C=C\CCCCCCCCOC[C@H](COP(=O)(O)OC[C@H]1O[C@@](C#N)(c2ccc3c(N)ncnn23)[C@H](O)[C@@H]1O)OCc1ccc(OC)c(F)c1`, for which the EC50 with SARS-CoV-2 [5] (setting [16]) stood at 0.07 µM; in the data set with SARS-CoV-2 [9], 0.054 µM; in the data set on SARS-CoV-2 [11], 0.3 µM; in the data set with SARS-CoV-2 [13] it was 0.082 µM. Further, the EC90 stood at 0.149 µM with SARS-CoV-2 [5] (setting [17]), 0.095 µM in the data set with SARS-CoV-2 [9], 0.554 µM with SARS-CoV-2 [11] and 0.175 µM in the data set on SARS-CoV-2 [13]. Moreover, the CC50 in [8] is 58.7 µM. Moreover, the selectivity ratio in data set [1] is 839; in [2] it was > 1850; in data set [3] it was > 333; in data set [4], > 243. For the same molecule, the CC50 at 48 h in data set [10] is > 100 µM. The CC50 at 38 h in data set [12] was > 100 µM. Also, in [14], the CC50 at 24 h is > 20 µM. Besides, in the data set on SARS-CoV-2 [15], the “Ratio EC50” value stood at 3.3.
For the molecule `CCCCCCCCCCCCCCCCCCOC[C@H](COP(=O)(O)OC[C@H]1O[C@@](C#N)(c2ccc3c(N)ncnn23)[C@H](O)[C@@H]1O)OCc1ccccc1C#N`, the selectivity ratio in [1] is 909; in [2] it was > 980; in [3], > 337. Moreover, in the data set with SARS-CoV-2 [11], the EC50 was determined as 0.296 µM. Further, in data set [12], the CC50 at 38 h is > 1010 µM.
In the case of `CCCCCCCCCCCCCCOC[C@H](COP(=O)(O)OC[C@H]1O[C@@](C#N)(c2ccc3c(N)ncnn23)[C@H](O)[C@@H]1O)OCc1ccccc1`, the results for the selectivity ratio in data set [1], in data set [2] and in [3] were > 469, > 636 and > 110, respectively.
Consider `CCCCCCCCCCCCCCCCOC[C@H](COP(=O)(O)OC[C@H]1O[C@@](C#N)(c2ccc3c(N)ncnn23)[C@H](O)[C@@H]1O)OCc1ccc(OC)c(F)c1`, for which the selectivity ratio in data set [1] was 1480; in [2], 1180; in data set [3] it was > 246; in data set [4], > 153.
Take `CCCCCCCCCCCCCCCCCCOC[C@H](COP(=O)(O)OC[C@H]1O[C@@](C#N)(c2ccc3c(N)ncnn23)[C@H](O)[C@@H]1O)OCc1ccc(C#N)cc1`: the selectivity ratio came out at 1400 in data set [1] and 1970 in data set [2].
Consider `CCCCCCCC/C=C\CCCCCCCCOC[C@H](COP(=O)(O)OC[C@H]1O[C@@](C#N)(c2ccc3c(N)ncnn23)[C@H](O)[C@@H]1O)OCc1ccccc1`, for which the EC50 in the data set on SARS-CoV-2 [5] (setting [16]) turned out to be 0.193 µM; with SARS-CoV-2 [9], 0.109 µM; with SARS-CoV-2 [11], 0.293 µM; in the data set on SARS-CoV-2 [13], 0.267 µM. For the same molecule, the EC90 stood at 0.324 µM with SARS-CoV-2 [5] (setting [17]), 0.224 µM with SARS-CoV-2 [9], 0.57 µM with SARS-CoV-2 [11] and 0.555 µM in the data set with SARS-CoV-2 [13]. Further, the CC50 in data set [8] was determined as 79.2 µM. For the same molecule, the selectivity ratio is 410 in [1], > 917 in data set [2], > 341 in data set [3] and > 74 in [4]. Besides, the CC50 at 48 h in data set [10] was > 100 µM. For the same molecule, the CC50 at 38 h in data set [12] is > 100 µM. For the same molecule, the CC50 at 24 h in data set [14] is > 20 µM.
